Assays:
[1] = test system: promoter regions of Ascl1, Brn2, Myt1l and TUBB3; assay: ChIP-qPCR of histone modifications at neuronal gene promoters; assay type: cell-based, mouse; conditions: BAM-transduced fibroblasts, day 3, relative to DMSO
Experimental: Halt™ Protease and Phosphatase Inhibitor Cocktail (ThermoFisher Scientific, 78442) was added to Cell Lysis (10 mM Tris-HCl pH 8.0, 85 mM KCl, 0.5% NP-40), Nuclei Lysis (10 mM Tris-HCl pH 7.5, 1% NP-40, 0.5% sodium deoxycholate, 0.1% SDS), and ChIP Dilution (0.01% SDS, 1.1% Triton X-100, 1.2 mM EDTA, 16.7 mM Tris-HCL pH 8.1, 167 mM NaCl) Buffers.
Three days post-Dox addition, 4×10^6 BAM-transduced fibroblasts cultured in the absence and presence of 10 μM blebbistatin and 5 μM PF573228, respectively, for 2 days were fixed using 1% formaldehyde in PBS (Fisher Scientific, BP531) for 10 minutes. 125 mM Glycine was added for 5 minutes to quench excess formaldehyde, followed by 2 washes with cold 1×PBS. Cells were scraped and collected into microcentrifuge tubes and centrifuged at 800 g at 4° C. for 5 minutes. Upon removing the supernatant, cell pellets were snap-frozen in liquid nitrogen and stored at −80° C. The cells were then resuspended and lysed in Cell Lysis Buffer and resuspended in Nuclei Lysis Buffer prior to sonication using a Branson SFX250 Sonifier at 40% amplitude, 0.7 seconds on and 1.3 seconds off, for a total of 8 minutes. […]
50 μL ChIP Elution Buffer was added to the stored internal controls from the post-sonication step. […] ChIP-qPCR data were analyzed by normalizing the DNA concentration to percent input using the relative standard curve method.

neuronal genes = assay: qRT-PCR of neuronal gene expression; assay type: cell-based, mouse; conditions: for neuronal gene expression at day 5: blebbistatin or 5 μM PF573228, vs non-treated transduced cells
Experimental: RNA was isolated from samples using Trizol® (Ambion) according to the manufacturer's instructions. For cDNA synthesis, 500 ng of RNA was reverse transcribed using Maxima First Strand cDNA Synthesis Kit (ThermoFisher Scientific). Template DNA was amplified using Maxima SYBR Green/Fluorescein qPCR Master Mix (ThermoFisher Scientific) on a CFX qPCR machine (Bio-Rad). qRT-PCR data were analyzed using CFX Manager 3.1 (Bio-Rad) and gene expression levels were normalized to 18S.

Row | SMILES | histone modifications at promoter regions of Ascl1, Brn2, Myt1l and TUBB3 [1] | neuronal gene expression at day 5 (neuronal genes; BAM-transduced fibroblasts) | endogenous Brn2 and Myt1l expression (neuronal genes; Ascl1-transduced fibroblasts) | expression of several neuronal genes including NeuroD1 (neuronal genes; Ascl1-transduced fibroblasts) | Ascl1 expression at day 3 (neuronal genes; BAM-transduced fibroblasts) | Brn2 and Myt1l expression at day 3 (neuronal genes; BAM-transduced fibroblasts)
1 | CS(=O)(=O)c1cccc(CNc2nc(Nc3ccc4c(c3)CCC(=O)N4)ncc2C(F)(F)F)c1 [PF573228] | significant increases in AcH3, H3K3me3 and H3K4me1 at the promoter regions | greater |  |  |  | 
2 | Cc1ccc2c(c1)C(=O)C1(O)CCN(c3ccccc3)C1=N2 (centres unmarked) [blebbistatin] | significant increases in AcH3, H3K4me3 and H3K4me1 at all four promoter regions | significantly increased | upregulated the expression of endogenous Brn2 and Myt1l | higher | upregulated | did not show such a drastic increase in the expression level

From patent US20230381774A1, “MICROFLUDIC LAB-ON-CHIP DEVICE, MATRIX, SMALL MOLECULES AND THREE-DIMENSIONAL SPHEROIDS FOR CELL REPROGRAMMING” (The Regents of the University of California, priority 2022, published 2023)
